The record followed here is patent US20220396567A1, “SUBSTITUTED PYRIMIDINE FOR THE TREATMENT AND PROPHYLAXIS OF HEPATITIS B VIRUS INFECTION” (Hoffmann-La Roche Inc., priority 2019, published 2022).

This experiment has as its system HBV. The experiment in a line: Cryopreserved primary human hepatocytes (PHH) HBV infection assay, extracellular HBsAg by CLIA. It is filed as cell-based. The conditions noted are these: Hepatitis B virus, Hepatocyte, 216 h; HBV-infected cryopreserved PHH; extracellular HBsAg at 9 days post-compound treatment; 4 parameter logistic curve fit. How it is done: This assay is used to confirm the anti-HBV effect of the compounds in HBV PHH infection assay. Cryopreserved PHH (BioreclamationIVT, Lot YJM) was thawed at 37° C. and gently transferred into pre-warmed InVitroGRO HT medium (BioreclamationIVT, Cat. S03317). The mixture was centrifuged at 70 relative centrifugal force (RCF) for 3 min at RT, and the supernatant was discarded. Pre-warmed InVitroGRO CP medium (BioreclamationIVT, Cat #S03316) was added to the cell pellet to gently re-suspend cells. The cells were seeded at the density of 5.8×10^4 cells per well to collagen I coated 96-well plate (Gibco, Cat. A1142803) with the InVitroGRO CP medium. All plates were incubated at 37° C. with 5% CO2 and 85% humidity.
At 20 hrs after plating, the medium was changed to PHH culture medium (Dulbecco's Modified Eagle Medium (DMEM)/F12 (1:1) (Gibco, Cat. 11320-033), 10% fetal bovine serum (Gibco Cat. 10099141), 100 U/mL penicillin, 100 μg/mL streptomycin (Gibco, Cat. 151401-122), […] (Invitrogen Cat. PHG0311L), 20 ng/mL dexamethasone (Sigma, Cat. D4902) and 250 ng/mL human recombinant insulin (Gibco, Cat. 12585-014)). And the cells were incubated at 37° C. with 5% CO2 and 85% humidity for 4 hrs. The medium was then changed to pre-warmed PHH culture medium containing 4% polyethylene glycol (PEG) MW8000 (Sigma, Cat. P1458-50 ML) and 1% DMSO (Sigma, Cat. D2650). 5.8×10^6 genomic equivalents of HBV were added into the medium.
At 24 hrs post-infection, the cells were gently washed with PBS and refreshed with PHH culture medium supplemented with 1% DMSO, and 0.25 mg/mL Matrix gel (Corning, Cat. 356237) at 200 μL per well. All plates were immediately placed in at 37° C. CO2 incubator.
24 hrs later, serial dilutions of compounds made with DMSO were further diluted with the same culture medium (PHH culture medium supplemented with 1% DMSO and 0.25 mg/mL Matrix gel as described above) before they were added to the cells to reach desired final compound concentrations and 1% DMSO concentration. The medium containing the compounds were refreshed every three days.
At 9 days post-compound treatment, extracellular HBsAg level were measured with Chemiluminescence Immuno Assay (CLIA) kit (Autobio, HBsAg Quantitative CLIA).
HBsAg IC50 was derived from the dose-response curve using 4 parameter logistic curve fit method. The compounds of formula (I) have HBsAg IC50<20 μM, particularly <1 μM.
What is called IC50 is the concentration that gives 50% inhibition. A low value points to greater potency. In the case of `CN(C)c1nc(NCC2CCCC2)c(C(=O)O)c(-c2ccco2)n1` [Example 43, 4-(cyclopentylmethylamino)-2-(dimethylamino)-6-(2-furyl)pyrimidine-5-carboxylic Acid], 5.55 µM corresponded to half-maximal inhibition (IC50).

Take `COCCNc1nc(NC2(c3cccc(C(F)(F)F)c3)CC2)c(C(=O)O)c(-c2ccco2)n1` [Example 58, 4-(2-furyl)-2-(2-methoxyethylamino)-6-[[1-[3-(trifluoromethyl)phenyl]cyclopropyl]amino]pyrimidine-5-carboxylic Acid]: the IC50 was 5.96 µM.

For the compound `CN(C)c1nc(NCc2ccccc2N)cc(-c2ccco2)n1` [Example 33, N4-[(2-aminophenyl)methyl]-6-(2-furyl)-N2,N2-dimethyl-pyrimidine-2,4-diamine], the half-inhibitory concentration (IC50) worked out at 7.58 µM.

Turning to `Cc1nc(NCc2ccc(OC(C)C)c(Br)c2)c(C#N)c(-c2ccco2)n1` [Example 21, 4-[(3-bromo-4-isopropoxy-phenyl)methylamino]-6-(2-furyl)-2-methyl-pyrimidine-5-carbonitrile], the IC50 amounted to 6.66 µM.

`Cc1nc(NC2(c3ccccc3S(C)(=O)=O)CC2)c(C#N)c(-c2ccco2)n1` [Example 22, 4-(2-furyl)-2-methyl-6-[[1-(2-methylsulfonylphenyl)cyclopropyl]amino]pyrimidine-5-carbonitrile]: inhibition was half-maximal at 2.73 µM (IC50).

For the compound `N#Cc1c(NCCc2ccccc2)ncnc1-c1ccco1` [Example 28, 4-(2-furyl)-6-(2-phenylethylamino)pyrimidine-5-carbonitrile], half-maximal inhibition (IC50) was put at 0.42 µM. This IC50 lies about 6.5-fold lower than the previous one.

`CCOC(=O)c1c(NCc2cccc(C(F)(F)F)c2)nc(SC)nc1-c1ccco1` [Example 45, Ethyl 4-(2-furyl)-2-methylsulfanyl-6-[[3-(trifluoromethyl)phenyl]methylamino]pyrimidine-5-carboxylate] gave a concentration for half-maximal inhibition (IC50) of 8.16 µM.

Regarding `COCCNc1nc(NCc2cccc(C(F)(F)F)c2)c(C#N)c(-c2ccco2)n1` [Example 12, 4-(2-furyl)-2-(2-methoxyethylamino)-6-[[3-(trifluoromethyl)phenyl]methylamino]pyrimidine-5-carbonitrile], half-maximal inhibition (IC50) was put at 3.89 µM. Compared with the last compound, the IC50 is about 2.1-fold lower.

For the compound `N#Cc1c(NCc2ccccc2Cl)ncnc1-c1ccco1` [Example 24, 4-[(2-chlorophenyl)methylamino]-6-(2-furyl)pyrimidine-5-carbonitrile], inhibition was half-maximal at 3.07 µM (IC50).

Consider `CCCCOc1nc(NCc2cccc(C(F)(F)F)c2)c(C#N)c(-c2ccco2)n1` [Example 19, 2-butoxy-4-(2-furyl)-6-[[3-(trifluoromethyl)phenyl]methylamino]pyrimidine-5-carbonitrile], for which the concentration for half-maximal inhibition (IC50) turned out to be 2.42 µM.

Turning to `CCOC(=O)c1c(NCc2cccc(C(F)(F)F)c2)nc(NCC(C)C)nc1-c1ccco1` [Example 49, Ethyl 4-(2-furyl)-2-(isobutylamino)-6-[[3-(trifluoromethyl)phenyl]methylamino]pyrimidine-5-carboxylate], the IC50 worked out at 5.35 µM.

The compound `CN(Cc1ccccc1)c1nc(N)nc(-c2ccco2)c1C(=O)O` [Example 42, 2-amino-4-[benzyl(methyl)amino]-6-(2-furyl)pyrimidine-5-carboxylic Acid] returned a concentration for half-maximal inhibition (IC50) of 5.27 µM.

Take `CCOC(=O)c1c(NCc2cccc(C(F)(F)F)c2)nc(C)nc1-c1ccco1` [Example 61, Ethyl 4-(2-furyl)-2-methyl-6-[[3-(trifluoromethyl)phenyl]methylamino]pyrimidine-5-carboxylate]: the half-inhibitory concentration (IC50) worked out at 7.38 µM.

Compound `CS(=O)(=O)c1ccccc1C1(Nc2nc(N)nc(-c3ccco3)c2C#N)CC1` [Example 7, 2-amino-4-(2-furyl)-6-[[1-(2-methylsulfonylphenyl)cyclopropyl]amino]pyrimidine-5-carbonitrile] showed a concentration for half-maximal inhibition (IC50) of 1.78 µM.

As to `COc1nc(NCc2cccc(C(F)(F)F)c2)c(C#N)c(-c2ccco2)n1` [Example 17, 4-(2-furyl)-2-methoxy-6-[[3-(trifluoromethyl)phenyl]methylamino]pyrimidine-5-carbonitrile], the half-inhibitory concentration (IC50) worked out at 3.35 µM.

`Nc1nc(NCC2CCCC2)c(C(=O)O)c(-c2ccco2)n1` [Example 41, 2-amino-4-(cyclopentylmethylamino)-6-(2-furyl)pyrimidine-5-carboxylic acid] had an IC50 of 3.24 µM.

Compound `COCCCNc1nc(NCc2cccc(C(F)(F)F)c2)c(C(=O)O)c(-c2ccco2)n1` [Example 51, 4-(2-furyl)-2-(3-methoxypropylamino)-6-[[3-(trifluoromethyl)phenyl]methylamino]pyrimidine-5-carboxylic Acid] gave an IC50 of 9.61 µM.

In turn, `CC(C)Oc1ccc(CNc2nc(N)nc(-c3ccco3)c2C#N)cc1Br` [Example 2, 2-amino-4-[(3-bromo-4-isopropoxy-phenyl)methylamino]-6-(2-furyl)pyrimidine-5-carbonitrile] registered a half-inhibitory concentration (IC50) of 3.28 µM. This IC50 lies about 2.9-fold lower than the previous one.

Compound `COc1nc(NC(C)c2cccc(C(F)(F)F)c2)cc(-c2ccco2)n1` (stereo not drawn) [Example 34, 6-(2-furyl)-2-methoxy-N-[1-[3-(trifluoromethyl)phenyl]ethyl]pyrimidin-4-amine] displayed an IC50 of 3.49 µM.

`CCNc1nc(NC2(c3cccc(C(F)(F)F)c3)CC2)c(C(=O)O)c(-c2ccco2)n1` [Example 60, 2-(ethylamino)-4-(2-furyl)-6-[[1-[3-(trifluoromethyl)phenyl]cyclopropyl]amino]pyrimidine-5-carboxylic Acid] showed an IC50 of 6.5 µM.

In turn, `Nc1nc(NCc2ccccc2N)cc(-c2cccs2)n1` [Example 36, N4-[(2-aminophenyl)methyl]-6-(2-thienyl)pyrimidine-2,4-diamine] had an IC50 of 6.62 µM. This IC50 and that of the compound before are within 1.5-fold of each other.

The compound `Nc1nc(NCc2ccc(Cl)cc2)c(C(=O)O)c(-c2ccco2)n1` [Example 37, 2-amino-4-[(4-chlorophenyl)methylamino]-6-(2-furyl)pyrimidine-5-carboxylic Acid] yielded a half-maximal inhibitory concentration (IC50) of 2.93 µM. This IC50 is about 2.3-fold lower than that of the compound before.

In the case of `N#Cc1c(NCC2CCCC2)ncnc1-c1ccco1` [Example 29, 4-(cyclopentylmethylamino)-6-(2-furyl)pyrimidine-5-carbonitrile], the IC50 was 2.61 µM.

`Nc1nc(NCc2cccc(C(F)(F)F)c2)c(C(=O)N2CCOCC2)c(-c2ccco2)n1` [Example 55, [2-amino-4-(2-furyl)-6-[[3-(trifluoromethyl)phenyl]methylamino]pyrimidin-5-yl]-morpholino-methanone]: the IC50 was found to be 10.1 µM.

Consider `CCOc1nc(NCc2cccc(C(F)(F)F)c2)c(C#N)c(-c2ccco2)n1` [Example 18, 2-ethoxy-4-(2-furyl)-6-[[3-(trifluoromethyl)phenyl]methylamino]pyrimidine-5-carbonitrile], for which 6.02 µM corresponded to half-maximal inhibition (IC50).

In the case of `Cc1ccccc1CNc1nc(N)nc(-c2ccco2)c1C(=O)O` [Example 39, 2-amino-4-(2-furyl)-6-(o-tolylmethylamino)pyrimidine-5-carboxylic Acid], the IC50 is 9.07 µM.

In the case of `COc1c(NCc2cccc(C(F)(F)F)c2)nc(N)nc1-c1ccco1` [Example 35, 6-(2-furyl)-5-methoxy-N4-[[3-(trifluoromethyl)phenyl]methyl]pyrimidine-2,4-diamine], the IC50 was 7.85 µM.

In turn, `CCCNc1nc(NCc2cccc(C(F)(F)F)c2)c(C#N)c(-c2ccco2)n1` [Example 15, 4-(2-furyl)-2-(propylamino)-6-[[3-(trifluoromethyl)phenyl]methylamino]pyrimidine-5-carbonitrile] registered an IC50 of 3.01 µM.

Turning to `Nc1nc(NCc2cccc(C(F)(F)F)c2)c(C(=O)O)c(-c2ccco2)n1` [Example 38, 2-amino-4-(2-furyl)-6-[[3-(trifluoromethyl)phenyl]methylamino]pyrimidine-5-carboxylic Acid], inhibition was half-maximal at 2.49 µM (IC50).

Turning to `N#Cc1c(NCC2(c3ccccc3)CCCC2)ncnc1-c1ccco1` [Example 30, 4-(2-furyl)-6-[(1-phenylcyclopentyl)methylamino]pyrimidine-5-carbonitrile], half-maximal inhibition (IC50) required 9.06 µM.
